Data published in patent publication US11685717B2, “Polypeptide integrin antagonists” (The General Hospital Corporation, priority 2018, dated 2023).
“Also recorded” adds a separate entry of the source. Positions of bridges follow the written chain, without caps; N, C: chain ends. Non-standard residues stand in square brackets, D forms with d. Residues, ends and D or L forms follow the SMILES beside them. hArg = N=C(N)NCCCC[C@H](N)C(=O)O; Mpa = O=C(O)CCS

Legend:
αIIbβ3 = molecular target: T1, αIIbβ3 (Homo sapiens, UniProt P05106+P08514); assay: Binding of conformation-sensitive mAbs AP5 / LIBS-1 to human platelets; assay type: cell-based
T1 construct: expressed in transfected cells; host or cells: K562
T1 sequence (P08514 32-887 limits assumed): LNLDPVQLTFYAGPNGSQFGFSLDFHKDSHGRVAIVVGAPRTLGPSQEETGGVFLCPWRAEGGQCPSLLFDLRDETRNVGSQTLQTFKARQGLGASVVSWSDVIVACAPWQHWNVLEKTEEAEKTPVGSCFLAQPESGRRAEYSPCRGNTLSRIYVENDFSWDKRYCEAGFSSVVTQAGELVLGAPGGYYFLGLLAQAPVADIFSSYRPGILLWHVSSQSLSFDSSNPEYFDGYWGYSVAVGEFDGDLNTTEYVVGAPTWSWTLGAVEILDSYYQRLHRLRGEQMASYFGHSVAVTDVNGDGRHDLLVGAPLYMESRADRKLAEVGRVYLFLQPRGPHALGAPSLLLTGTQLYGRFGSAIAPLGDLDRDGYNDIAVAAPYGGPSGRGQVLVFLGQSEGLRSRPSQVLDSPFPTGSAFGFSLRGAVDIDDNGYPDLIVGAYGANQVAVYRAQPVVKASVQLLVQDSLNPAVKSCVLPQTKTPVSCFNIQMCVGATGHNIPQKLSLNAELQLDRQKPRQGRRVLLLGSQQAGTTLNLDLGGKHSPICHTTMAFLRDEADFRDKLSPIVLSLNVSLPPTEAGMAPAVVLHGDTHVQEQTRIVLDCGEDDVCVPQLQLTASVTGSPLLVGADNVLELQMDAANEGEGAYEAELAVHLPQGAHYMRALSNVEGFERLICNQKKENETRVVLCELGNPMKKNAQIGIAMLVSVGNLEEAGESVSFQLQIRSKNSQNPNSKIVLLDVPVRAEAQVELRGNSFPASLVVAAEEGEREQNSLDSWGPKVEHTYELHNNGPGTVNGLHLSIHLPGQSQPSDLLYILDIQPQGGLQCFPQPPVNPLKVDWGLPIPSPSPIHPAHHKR
T1 sequence (P08514 891-1039 partner limits assumed): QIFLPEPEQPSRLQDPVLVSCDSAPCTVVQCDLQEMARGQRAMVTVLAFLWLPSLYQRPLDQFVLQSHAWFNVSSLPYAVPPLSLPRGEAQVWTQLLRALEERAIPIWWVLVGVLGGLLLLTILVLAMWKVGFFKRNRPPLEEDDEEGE
T1 sequence (P05106 27-788): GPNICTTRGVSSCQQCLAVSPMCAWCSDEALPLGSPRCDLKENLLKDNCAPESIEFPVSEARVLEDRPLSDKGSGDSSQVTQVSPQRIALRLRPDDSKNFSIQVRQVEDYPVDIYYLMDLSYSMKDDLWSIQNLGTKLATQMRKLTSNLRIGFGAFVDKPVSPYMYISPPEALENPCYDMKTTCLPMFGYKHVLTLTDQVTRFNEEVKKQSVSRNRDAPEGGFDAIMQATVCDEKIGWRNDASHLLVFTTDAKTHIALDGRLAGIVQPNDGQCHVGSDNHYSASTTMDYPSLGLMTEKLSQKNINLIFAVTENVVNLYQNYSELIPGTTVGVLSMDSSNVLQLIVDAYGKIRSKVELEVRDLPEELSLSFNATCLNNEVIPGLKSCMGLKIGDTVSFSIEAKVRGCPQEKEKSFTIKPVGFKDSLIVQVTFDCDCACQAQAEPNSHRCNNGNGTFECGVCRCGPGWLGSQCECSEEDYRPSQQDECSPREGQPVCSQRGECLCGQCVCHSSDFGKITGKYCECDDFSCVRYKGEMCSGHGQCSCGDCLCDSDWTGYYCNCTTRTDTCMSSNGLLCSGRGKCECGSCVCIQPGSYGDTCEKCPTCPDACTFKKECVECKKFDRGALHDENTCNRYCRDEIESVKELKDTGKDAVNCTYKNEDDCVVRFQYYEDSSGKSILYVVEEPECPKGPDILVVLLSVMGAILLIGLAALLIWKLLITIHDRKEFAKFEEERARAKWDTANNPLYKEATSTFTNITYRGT

human platelets [1] = assay: Cremaster laser injury thrombosis in vWF RH/RH NSG mice infused with human platelets; assay type: in vivo; conditions: eptifibatide 5 μg/mouse, Hr10 60 μg/mouse (equimolar), infused 5 min before injury; FIG. 13A
Description: Human blood was collected in 0.129 M sodium citrate (10:1 vol/vol). Blood was obtained from healthy donors after informed consent. Platelet-rich plasma (PRP) was separated after centrifugation (200 g, 10 minutes) at room temperature (RT). The platelets were then isolated from PRP, and prostaglandin E1 (Sigma-Aldrich) added to a final concentration of 1 μM. Platelets were then pelleted by centrifugation (800 g, 10 minutes) at RT. The pellet was washed in calcium-free Tyrode's buffer (134 mM NaCl, 3 mM KCl, 0.3 mM NaH2PO4, 2 mM MgCl2, 5 mM HEPES, 5 mM glucose, 0.1% NaHCO3, and 1 mM EGTA, pH 6.5), and re-suspended in CATCH buffer (PBS and 1.5% bovine serum albumin, 1 mM adenosine, 2 mM theophylline, 0.38% sodium citrate, all from Sigma-Aldrich). Platelet counts were determined using a HemaVet counter (Drew Scientific). Intravital microscopy was performed as previously described (see e.g., Celi et al, J. Thromb. Haemost. 1, 60-68 (2003); and Neyman et al, Blood, 112, 1101-1108 (2008)). vWF^RH RHNSG male mice were studied after being anesthetized using sodium pentobarbital (80 mg/kg) injected intraperitoneally. Mice were maintained under anesthesia with the same anesthetic delivered via a catheterized jugular vein at 5 mg/mL throughout the experiment. […]

[2] = Tail bleeding in vWF RH/RH NSG mice infused with human platelets; conditions: mouse, in vivo
Description: Pentobarbital-anesthetized vWF^RH RHNSG mice were infused retroorbitally with 8×10^8 washed human platelets in a final volume of 200 μL (so that ˜40% of the circulating platelets were human). After 5 minutes PBS, 3 μM eptifibatide or Hr10 were administered IV. After another 5 minutes, mouse tail injury was produced by amputating an 8-mm terminal tail segment using a razor blade, which was then placed in a collection tube containing sterile water at 37° C. for 10 minutes. The hemoglobin level in the water was measured by a spectrophotometer, as described (see e.g., Greene et al, J. Thromb. Haemost. 8, 2820-2822 (2010)) with the following modifications. Briefly, the hemolyzed whole blood/water mixture was centrifuged at 21,000×g for 5 minutes. Aliquots (20 μL) of clarified, stroma-free supernatant were diluted 10-fold in a Corning 96-well micro-plate and light absorbance measured at 575 nm (Spectramax-190 plate reader, Molecular Devices, San Jose, Calif.). Blood loss during the 10-minute window was measured based on a previously obtained standard curve.

human platelets [3] = assay: Surface expression of CD62P and CD63 on human platelets (flow cytometry); assay type: cell-based; conditions: 1.5 μM; ADP 20 μM; FIG. 11F
Description: αVβ3-K562 cells or transiently transfected HEK293T (0.5×10^6 in 100 μL WB) were incubated in the absence or presence of unlabeled Hr10 or eptifibatide, each at 1.5 μM, for 20 min at RT. Alexa647-labeled AP5 Fab or unlabeled anti-LIBS-1 (each to 10 μg/mL) were added, and cells incubated for an additional 30 min before washing. Alexa647-labeled AP3 was used for normalization of integrin expression. APC-labeled goat anti-mouse Fc-specific antibody was added to anti-LIBS-1-bound cells for an additional 30 min at 4° C., cells washed and processed for flow cytometry. Binding of anti-CD62 and anti-CD63 mAbs to platelets was performed by incubating (20 min, RT) 100 μL of ligand-pretreated 3.2% sodium citrate whole blood with either Alexa488-labeled mAb (at 10 μg/mL) in the presence of 10 μg/mL Alexa647-labeled anti-CD42b. Cells were fixed in 2% paraformaldehyde and CD62 and CD63 expression was analyzed by flow cytometry in the CD42b positive population.

human platelets [4] = assay: Thrombin-induced clot retraction in human platelet-rich plasma; assay type: cell-based
Description: 750 μL of Tyrode's buffer supplemented with inhibitor was mixed in a glass culture tube with 200 μL of PRP and 5 μL red blood cells. Clotting was initiated by addition of 50 μL thrombin at 10 units/mL in saline and a sealed Pasteur pipette secured in the tube center. Digital photographs of the experiment were taken at 15-minute intervals over 2 hours. Images were analyzed with ImageJ software to determine the area occupied by the clot and plasma. Plots of the relative areas and linear regressions were performed with SigmaPlot (Systat Software, San Jose, Calif.).
No ligands were added to the control tube. Photographs were taken immediately after thrombin addition (FIG. 5A) and at the end of the reaction (FIG. 5B). Clot retraction around the central glass rod placed in each glass test tube before thrombin addition is shown. 5 μL of red blood cells were added per 1 mL reaction to enhance the color contrast for photography.
Clot retraction normally helps secure hemostasis in vivo as evidenced by increased bleeding in mice with impaired clot retraction (see e.g., Leon et al, Blood 110, 3183-3191, doi:10.1182/blood-2007-03-080184 (2007)), or in recipients of any of the three anti-αIIbβ3 drugs (see e.g., Tutwiler et al, Biophys. J. 112, 714-723 (2017); Osdoit et al, J. Biol. Chem. 276, 6703-6710 (2001); Haling et al, Blood 117, 1719-1722 (2011)). The effects of Hr10 and eptifibatide on thrombin-induced clot retraction in fresh human platelet-rich plasma (PRP) (see e.g., Tucker et al, Methods Mol. Biol. 788, 101-107 (2012)) were compared. The kinetics of clot retraction were determined from quantification of serial images of the reaction acquired every 15 minutes for the 2-hour duration of the assay. […] Thrombolysis, 15, 71-80 (2003).

Conformational changes in αIIbβ3 reported by binding of mAbs AP5 and LIBS-1 (αIIbβ3; 1.5 μM, absence or presence of 5 μM ADP, FIG. 8D) | Bleeding volume [2] | Bleeding in humanized mice ([2]; iv) | Induction of AP5 epitope expression on human platelets (αIIbβ3; tirofiban 150 nM, M-tirofiban 1.5 μM, ADP 5 μM, FIG. 6D) | Compound | Nascent occlusive thrombus formation / human platelet accumulation at laser-induced arteriolar injury (human platelets [1]) | ADP-induced secretion from lysosomes (CD63 expression) (human platelets [3]) | ADP-induced secretion from platelet α-granules (CD62P expression) (human platelets [3]) | Kinetics of thrombin-induced clot retraction vs. buffer (human platelets [4]; fresh human PRP, 2 hours, FIGS. 12A-12B, three experiments) | Kinetics of thrombin-induced clot retraction (human platelets [4]; FIG. 6E, three experiments, vs buffer control) | Clot retraction induced by α-thrombin (photographs) (human platelets [4]; tirofiban 1.5 μM, m-tirofiban 15 μM, α-thrombin 0.5 unit/mL, FIG. 5)
induced conformational changes in αIIbβ3 | ~10 % of blood volume of a normal mouse | caused excessive bleeding | – | N=C(N)NCCCC[C@@H]1NC(=O)CCSSC[C@@H](C(N)=O)NC(=O)[C@@H]2CCCN2C(=O)[C@H](Cc2c[nH]c3ccccc23)NC(=O)[C@H](CC(=O)O)NC(=O)CNC1=O [eptifibatide] ([Mpa][hArg]GDWPC-NH2; disulfide 1-7) | completely preventing nascent occlusive thrombus formation | did not significantly alter; also recorded: No differences | did not significantly alter; also recorded: No differences | significantly blocked clot retraction; also recorded: clot retraction was significantly reduced | – | –
– | – | – | induced expression of the AP5 epitope | CCCCS(=O)(=O)N[C@@H](Cc1ccc(OCCCCC2CCNCC2)cc1)C(=O)O [tirofiban] | – | – | – | – | effectively blocked thrombin-induced clot retraction | completely blocked clot retraction
